According to patent US11591341B2 (ALIGOS THERAPEUTICS, INC., priority 2019, dated 2023):

tested on: HBV; assay: HBV-DNA Antiviral Assay Using HepG2.117 Cells (intracellular HBV DNA by qPCR); assay type: cell-based, hepatitis B virus (genotype D); conditions: Hepatitis B virus, HepG2.117
Outline: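 Endpoint: qPCR copy number of intracellular HBV DNA after 3-day compound exposure, with inhibition set relative to the 2% DMSO control. The cells were doxycycline-free HepG2.117 carrying a Tet-off genotype D genome, dosed at nine 4-fold dilutions. A duplicate plate gave ATP-based viability (CC50).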

| Compound | EC50 |
| --- | --- |
| O=C(c1ccc(Br)c(Cl)c1)N1CCn2c(c3n(c2=O)CCCN(CC2CC2)C3=O)C1 [Example 133, 4-(4-bromo-3-chloro-benzoyl)-13-(cyclopropylmethyl)-4,7,9,13-tetrazatricyclo[7.5.0.0^2,7]tetradec-1-ene-8.14-dione] | > 5000 nM |
| COc1ccc(-n2c(C(=O)NCc3ccccc3-n3cccn3)c3n(c2=O)CCN(C(=O)c2ccc(Br)c(Cl)c2)C3)cc1 [Example 167, 7-(4-bromo-3-chloro-benzoyl)-2-(4-methoxyphenyl)-3-oxo-N-[(2-pyrazol-1-ylphenyl)methyl]-6,8-dihydro-5H-imidazo[1,5-a]pyrazine-1-carboxamide] | < 100 nM |
| CC(NC(=O)c1c2n(c(=O)n1-c1ccc(OCC(F)(F)F)cc1)CCN(C(=O)c1ccc(Br)c(Cl)c1)C2)c1ccc(OC2COC2)cc1F (racemic) [Example 348, 7-(4-bromo-3-chloro-benzoyl)-3-oxo-N-[rac-(1R)-1-[2-fluoro-4-(oxetan-3-yloxy)phenyl]ethyl]-2-[4-(2,2,2-trifluoroethoxy)phenyl]-6,8-dihydro-5H-imidazo[1,5-a]pyrazine-1-carboxamide] | 500 to 5000 nM |
| N#CCOc1ccc(-n2c(C(=O)NCc3ccccc3)c3n(c2=O)CCN(C(=O)c2ccc(Br)c(Cl)c2)C3)cc1 [Example 265, N-benzyl-7-(4-bromo-3-chloro-benozyl)-2-[4-(cyanomethoxy)phenyl]-3-oxo-6,8-dihydro-5H-imidazo[1,5-a]pyrazine-1-carboxamide] | 500 to 5000 nM |
| O=C(NCc1ccccc1)c1c2n(c(=O)n1-c1ccccc1)CCN(C(=O)c1ccc(Br)c(Cl)c1)C2 [Example 195, N-benzyl-7-(4-bromo-3-chloro-benzoyl)-3-oxo-2-phenyl-6,8-dihydro-5H-imidazo[1,5-a]pyrazine-1-carboxamide] | 500 to 5000 nM |
| COc1ccc([C@@H](C)NC(=O)c2c3n(c(=O)n2-c2ccc(-n4cccn4)cc2)CCN(C(=O)c2ccc(Br)c(Cl)c2)C3)cc1 [Example 454, 7-(4-bromo-3-chloro-benzoyl)-N-[(1R)-1-(4-methoxyphenyl)ethyl]-3-oxo-2-(4-pyrazol-1-ylphenyl)-6,8-dihydro-5H-imidazo[1,5-a]pyrazine-1-carboxamide] | 100 to 500 nM |
| O=C(NCc1ccccc1)c1c2n(c(=O)n1-c1ccc(-n3cncn3)cc1)CCN(C(=O)c1ccc(Br)c(Cl)c1)C2 [Example 395, N-benzyl-7-(4-bromo-3-chloro-benzoyl)-3-oxo-2-[4-(1,2,4-triazol-1-yl)phenyl]-6,8-dihydro-5H-imidazo[1,5-a]pyrazine-1-carboxamide] | 500 to 5000 nM |
| C[C@@H](NC(=O)c1[nH]c(=O)n2c1CN(C(=O)c1ccc(Br)c(Cl)c1)CC2)c1ccccc1 (racemic) [Example 188, 7-(4-bromo-3-chloro-benzoyl)-3-oxo-N-[rac-(1R)-1-phenylethyl]-2,5,6,8-tetrahydroimidazo[1,5-a]pyrazine-1-carboxamide] | 500 to 5000 nM |
| Cc1nc2cc(-n3c(C(=O)NCc4ccccc4)c4n(c3=O)CCN(C(=O)c3ccc(Br)c(Cl)c3)C4)ccc2o1 [Example 418, N-benzyl-7-(4-bromo-3-chloro-benzoyl)-2-(2-methyl-1,3-benzoxazol-5-yl)-3-oxo-6,8-dihydro-5H-imidazo[1,5-a]pyrazine-1-carboxamide] | 100 to 500 nM |
| O=C(NCc1ccccc1-n1cncn1)c1c2n(c(=O)n1-c1ccc(OCC(F)(F)F)cc1)CCN(C(=O)c1ccc(Br)c(Cl)c1)C2 [Example 304, 7-(4-bromo-3-chloro-benzoyl)-3-oxo-N-[[2-(1,2,4-triazol-1-yl)phenyl]methyl]-2-[4-(2,2,2-trifluoroethoxy)phenyl]-6,8-dihydro-5H-imidazo[1,5-a]pyrazine-1-carboxamide] | < 100 nM |
| COc1ccc(CNC(=O)c2c3n(c(=O)n2-c2ccccc2)CCN(C(=O)c2ccc(Br)c(Cl)c2)C3)cc1OC [Example 32, 7-(4-bromo-3-chloro-benzoyl)-N-[(3,4-dimethoxyphenyl)methyl]-3-oxo-2-phenyl-6,8-dihydro-5H-imidazo[1,5-a]pyrazine-1-carboxamide] | 100 to 500 nM |
| O=C(NCCc1ccccc1)c1c2n(c(=O)n1-c1ccccc1)CCN(C(=O)c1ccc(Br)c(Cl)c1)C2 [Example 28, 7-(4-bromo-3-chloro-benzoyl)-3-oxo-2-phenyl-N-(2-phenylethyl)-6,8-dihydro-5H-imidazo[1,5-a]pyrazine-1-carboxamide] | 500 to 5000 nM |
| COc1ccc(-n2c(C(=O)NCc3ccccc3)c3n(c2=O)CCN(C(=O)c2ccc(Cl)c(Cl)c2)C3)cc1C [Example 124, N-benzyl-7-(3,4-dichlorobenzoyl)-2-(4-methoxy-3-methyl-phenyl)-3-oxo-6,8-dihydro-5H-imidazo[1,5-a]pyrazine-1-carboxamide] | 500 to 5000 nM |
| O=C(NCc1ccccc1)c1c2n(c(=O)n1-c1ccccn1)CCN(C(=O)c1ccc(Cl)c(Cl)c1)C2 [Example 78, N-benzyl-7-(3,4-dichlorobenzoyl)-3-oxo-2-(2-pyridyl)-6,8-dihydro-5H-imdiazo[1,5-a]pyrazine-1-carboxamide] | > 5000 nM |
| CNC(=O)c1ccc(-n2c(C(=O)NCc3ccccc3)c3n(c2=O)CCN(C(=O)c2ccc(Br)c(Cl)c2)C3)cc1 [Example 36, N-benzyl-7-(4-bromo-3-chloro-benzoyl)-2-[4-(methylcarbamoyl)phenyl]-3-oxo-6,8-dihydro-5H-imidazo[1,5-a]pyrazine-1-carboxamide] | > 5000 nM |
| C[C@H]1Cn2c(c(C(=O)NCc3ccccc3-c3ncccn3)n(-c3ccc(OC4CC4)cc3)c2=O)CN1C(=O)c1ccc(Br)c(C#N)c1 (racemic) [Example 452, rac-(6S)-7-(4-bromo-3-cyano-benzoyl)-2-[4-(cyclopropoxy)phenyl]-6-methyl-3-oxo-N-[(2-pyrimidin-2-ylphenyl)methyl]-6,8-dihydro-5H-imidazo[1,5-a]pyrazine-1-carboxamide] | < 100 nM |
| O=C(NCc1ccccc1-c1ncco1)c1c2n(c(=O)n1-c1ccc(OCC(F)(F)F)cc1)CCN(C(=O)c1ccc(Br)c(Cl)c1)C2 [Example 375, 7-(4-bromo-3-chloro-benzoyl)-N-[(2-oxazol-2-ylphenyl)methyl]-3-oxo-2-[4-(2,2,2-trifluoroethoxy)phenyl]-6,8-dihydro-5H-imidazo[1,5-a]pyrazine-1-carboxamide] | 100 to 500 nM |
| COc1ccc(CNC(=O)c2c3n(c(=O)n2-c2ccccc2)CCN(C(=O)c2ccc(Br)c(Cl)c2)C3)c(F)c1 [Example 40, 7-(4-bromo-3-chloro-benzoyl)-N-[(2-fluoro-4-methoxy-phenyl)methyl]-3-oxo-2-phenyl-6,8-dihydro-5H-imidazo[1,5-a]pyrazine-1-carboxamide] | 100 to 500 nM |
| C[C@H]1Cn2c(c3n(c2=O)C[C@H](F)CN(Cc2ccccc2)C3=O)CN1C(=O)c1ccc(Br)c(Cl)c1 (stereo in doubt) [Example 372, 13-benzyl-4-(4-bromo-3-chlorobenzoyl)-11-fluoro-4,7,9,13-tetraazatricyclo[7.5.0.0^[2,7]]tetradec-1-ene-8,14-dione] | 100 to 500 nM |
| COc1ccc(CNC(=O)c2c3n(c(=O)n2-c2ccc(OC4CC4)cc2)CCN(C(=O)c2ccc(Br)c(Cl)c2)C3)c(F)c1 [Example 460, 7-(4-bromo-3-chloro-benzoyl)-2-[4-(cyclopropoxy)phenyl]-N-[(2-fluoro-4-methoxy-phenyl)methyl]-3-oxo-6,8-dihydro-5H-imidazo[1,5-a]pyrazine-1-carboxamide] | 100 to 500 nM |
| COc1ccc(-n2c(C(=O)N[C@@H](C)c3ccccc3)c3n(c2=O)CCN(C(=O)c2ccc(Br)c(Cl)c2)C3)cc1 (stereo in doubt) [Example 69, 7-(4-bromo-3-chloro-benzoyl)-2-(4-methoxypehnyl)-3-oxo-N-[rac-(1S)-1-phenylethyl]-6,8-dihydro-5H-imidazo[1,5-a]pyrazine-1-carboxamide] | 100 to 500 nM |
| O=C(NCc1ccccc1-c1ccncn1)c1c2n(c(=O)n1-c1ccc(OCC(F)(F)F)cc1)CCN(C(=O)c1ccc(Br)c(Cl)c1)C2 [Example 423, 7-(4-bromo-3-chloro-benzoyl)-3-oxo-N-[(2-pyrimidin-4-ylphenyl)methyl]-2-[4-(2,2,2-trifluoroethoxy)phenyl]-6,8-dihydro-5H-imidazo[1,5-a]pyrazine-1-carboxamide] | < 100 nM |
| O=C(NCc1ccccc1)c1c2n(c(=O)n1-c1ccc(-n3cc(F)cn3)cc1)CCN(C(=O)c1ccc(Br)c(Cl)c1)C2 [Example 427, N-benzyl-7-(4-bromo-3-chloro-benzoyl)-2-[4-(4-fluoropyrazol-1-yl)phenyl]-3-oxo-6,8-dihydro-5H-imidazo[1,5-a]pyrazine-1-carboxamide] | 100 to 500 nM |
| O=C(c1ccc(Br)c(Cl)c1)N1CCn2c(c3n(c2=O)CC2(COC2)CN(Cc2ccccc2)C3=O)C1 [Example 239, 13-benzyl-4-(4-bromo-3-chloro-benzoyl)spiro[4,7,9,13-tetrazatricyclo[7.5.0.0 2,7]tetradec-1-ene-11,3′-oxetane]-8,14-dione] | 500 to 5000 nM |
| CC(Oc1ccc(CNC(=O)c2c3n(c(=O)n2-c2ccc(OC4CC4)cc2)CCN(C(=O)c2ccc(Br)c(Cl)c2)C3)c(F)c1)C(N)=O (racemic) [Example 394, 7-(4-bromo-3-chloro-benzoyl)-2-[4-(cyclopropoxy)phenyl]-N-[[2-fluoro-4-[rac-(1S)-2-amino-1-methyl-2-oxo-ethoxy]phenyl]methyl]-3-oxo-6,8-dihydro-5H-imidazo[1,5-a]pyrazine-1-carboxamide] | 100 to 500 nM |
| COc1ccc(-n2c(C(=O)NCc3ncccn3)c3n(c2=O)CCN(C(=O)c2ccc(Br)c(Cl)c2)C3)cc1 [Example 157, 7-(4-bromo-3-chloro-benzoyl)-2-(4-methoxyphenyl)-3-oxo-N-(pyrimidin-2-ylmethyl)-6,8-dihydro-5H-imidazo[1,5-a]pyrazine-1-carboxamide] | > 5000 nM |
| COc1ccc(-n2c(C(=O)N[C@H]3CCc4cc(OC)ccc43)c3n(c2=O)CCN(C(=O)c2ccc(Br)c(Cl)c2)C3)cc1 (stereo in doubt) [Example 100, 7-(4-bromo-3-chloro-benzoyl)-2-(4-methoxyphenyl)-3-oxo-N-[rac-(1S)-5-methoxyindazin-1-yl]-6,8-dihydro-5H-imidazo[1,5-a]pyrazine-1-carboxamide] | 100 to 500 nM |
